Read-outs that look alike come from different tables or passages of the source.
What was measured:
[1] = tested on: LNCaP cells; experiment: MTT colorimetric anti-proliferative assay; assay type: cell-based, human; conditions: for GI50: LNCaP, MTT, 7 days; for fold loss/reduction in anti-proliferative activity: relative to lead compound 5 (or parent 32)
Procedure: The cells were treated for 7 days with renewal of test compound and media on day 4. On the 7th day, medium was renewed and MTT (3-(4,5-dimethylthiazol-2-yl)-2,5-diphenyl-2H-tetrazolium bromide) (Sigma, St Louis, Mo., USA) solution (0.5 mg MTT per ml of media) was added to the medium such that the ratio of MTT: medium was 1:10. The cells were incubated with MTT for 2 hours. The medium was then aspirated and DMSO was added to solubilize the violet MTT-formazan product.

[2] = molecular target: T1, AR (Homo sapiens, UniProt P10275, T878A); experiment: AR down-regulation, western blot analysis in LNCaP cells; assay type: cell-based; conditions: 24 h, western blot
T1 construct: host or cells: LNCaP
T1 sequence (P10275 1-920 T878A): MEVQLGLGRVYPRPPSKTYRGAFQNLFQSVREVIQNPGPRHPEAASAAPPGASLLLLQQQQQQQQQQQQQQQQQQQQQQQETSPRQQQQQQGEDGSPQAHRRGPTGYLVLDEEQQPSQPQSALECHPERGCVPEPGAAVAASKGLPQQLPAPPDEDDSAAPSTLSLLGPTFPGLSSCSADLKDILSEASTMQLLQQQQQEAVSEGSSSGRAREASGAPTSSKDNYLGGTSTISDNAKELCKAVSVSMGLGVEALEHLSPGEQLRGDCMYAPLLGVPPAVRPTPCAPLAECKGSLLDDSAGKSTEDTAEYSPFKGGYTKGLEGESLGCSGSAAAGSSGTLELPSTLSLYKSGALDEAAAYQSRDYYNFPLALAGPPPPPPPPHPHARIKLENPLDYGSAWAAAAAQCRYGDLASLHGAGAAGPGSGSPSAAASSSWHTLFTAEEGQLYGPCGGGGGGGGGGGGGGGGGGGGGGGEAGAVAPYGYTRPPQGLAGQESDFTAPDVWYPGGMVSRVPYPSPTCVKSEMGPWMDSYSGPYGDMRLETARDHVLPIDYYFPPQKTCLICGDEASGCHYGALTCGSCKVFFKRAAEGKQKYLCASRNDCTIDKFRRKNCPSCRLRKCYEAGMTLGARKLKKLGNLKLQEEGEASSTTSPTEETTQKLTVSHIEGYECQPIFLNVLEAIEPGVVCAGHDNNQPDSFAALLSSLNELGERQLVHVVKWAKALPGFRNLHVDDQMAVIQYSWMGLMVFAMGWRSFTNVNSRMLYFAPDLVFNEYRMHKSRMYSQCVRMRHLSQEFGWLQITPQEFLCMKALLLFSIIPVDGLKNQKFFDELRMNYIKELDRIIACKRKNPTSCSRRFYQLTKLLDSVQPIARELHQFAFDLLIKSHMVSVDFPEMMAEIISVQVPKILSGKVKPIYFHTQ
Procedure: For the Western blot analyses, LNCaP or CWR22v1 prostate cancer cells were cultured. The cells were then treated with the indicated compounds and whole cell lysates were prepared using RIPA lysis buffer (Sigma Aldrich) and protease and phosphatase inhibitors (Sigma Aldrich). All of the antibodies were ordered from cell signaling technology. Protein content was determined using the Bradford Assay (Bio-Rad, Hercules, Calif., USA). Protein was subjected to SDS-PAGE and transferred onto nitrocellulosemembrane. Membranes were then incubated with secondary antibody (cell signaling technology) at room temperature for 1 hour. Bands were visualized by chemiluminescence (Millipore). Protein expression was normalized to β-actin and densitometry was carried out using Image J or ImageQuant 5.0 (Molecular Dynamics, Sunnyvale, Calif., USA). CWR22Rv1 cells were used for endogenous levels of splice variant AR-3. Protein levels were analyzed with respective antibodies; full length AR and β-actin antibodies were purchased from cell signaling, antibody specific for splice variant AR-3 was obtained from Dr. Yun Qiu, University of Maryland, School of Medicine, Baltimore.

[3] = Homo sapiens, 168 h, Table 4, read-out: GI50 of C-3 modified compounds
[4] = Table 4, read-out: GI50 of C-3 modified compounds
[5] = Table 2, read-out: GI50 of C-17 modified compounds
[6] = Homo sapiens, 168 h, Table 2, read-out: GI50 of C-17 modified compounds

Row | Compound | melting point [°C] | GI50 [1, 4] [µM] | AR down-regulation (ARD) activity, in words [2] | also measured
1 | CC1(O)C=C2CC[C@@H]3[C@H](CC[C@]4(C)C(n5cnc6ccccc65)=CC[C@@H]34)[C@@]2(C)CC1 (stereo partly drawn) [Compound 40, 3-Methyl-3-hydroxy-17-(1H-benzimidazol-1-yl)-androsta-4,16-diene] | 95 to 97 |  |  | GI50 [1, 3]: 13.3 µM; fold loss/reduction in anti-proliferative activity [1]: ~5 fold
2 | C[C@]12CC[C@H](OC(=O)n3cncn3)CC1=CC[C@@H]1[C@@H]2CC[C@]2(C)C(n3cnc4ccccc43)=CC[C@@H]12 [Compound 49, 3β-(1H-1,2,4-Triazole-1-carboxylate)-17-(1H-benzimidazol-1-yl)-androsta-5,16-diene] |  | 6.67 |  | fold decrease in anti-proliferative activity ([1]; relative to 47): ~8 fold
3 | C[C@]12CC[C@H](OS(C)(=O)=O)CC1=CC[C@@H]1[C@@H]2CC[C@]2(C)C(n3cnc4ccccc43)=CC[C@@H]12 [Compound 34, 3β-Mesyloxy-17-(1H-benzimidazol-1-yl)-androsta-5,16-dien] |  |  |  | GI50 [1, 3]: 42.1 µM
4 | COc1ccc2ncn(C3=CC[C@H]4[C@@H]5CC=C6C[C@@H](O)CC[C@]6(C)[C@H]5CC[C@]34C)c2c1 [Compound 19, 3β-Hydroxy-17-(6-methoxy-1H-benzimidazol-1-yl)-androsta-5,16-diene] | 169 to 179 |  | no modulation of ARDA | GI50 [1, 5]: 4.26 µM
5 | C[C@]12CCC(=O)C=C1CC[C@@H]1[C@@H]2CC[C@]2(C)C(n3cnc4ccccc43)=CC[C@@H]12 [Compound 32, 17-(1H-Benzimidazol-1-yl)-androsta-4,16-dien-3-one] |  |  |  | GI50 [1, 3]: 2.64 µM
6 | C[C@]12CC[C@H](OC(=O)C3CC=CCC3C(=O)O)CC1=CC[C@@H]1[C@@H]2CC[C@]2(C)C(n3cnc4ccccc43)=CC[C@@H]12 (stereo partly drawn) [Compound 45, 3β-(6-(Cyclohex-3-enecaboxylic acid)carboxylate)-17-(1H-benzimidazol-1-yl)-androsta-5,16-diene] |  | 8.22 |  | 
7 | C[C@]12CCC(=NOCc3ccccc3)C=C1CC[C@@H]1[C@@H]2CC[C@]2(C)C(n3cnc4ccccc43)=CC[C@@H]12 (mixture of isomers) [Compound 39, 3-((EZ)-(O-Phenylmethyl)oxime)-17-(1H-Benzimidazol-1-yl)-androsta-4,16-diene] |  | 5.57 |  | 
8 | C[C@]12CC[C@H](O)CC1=CC[C@@H]1[C@@H]2CC[C@]2(C)C(n3cnc4ccccc43)=C(CNc3ccccc3)C[C@@H]12 [Compound 28, 3β-Hydroxy-17-(1H-benzimidazol-1-yl)-16-((phenylamino)methyl)-androsta-5,16-diene] | 130 to 132 |  | significant loss of ARD | GI50 ([1]; Homo sapiens, 168 h, LNCaP cells, Table 3, read-out: GI50 of C-16 modified compounds): 22.1 µM
9 | C[C@]12CC[C@H](O)CC1=CC[C@@H]1[C@@H]2CC[C@]2(C)C(n3cnc4cc(C#N)ccc43)=CC[C@@H]12 [Compound 18, 3β-Hydroxy-17-(5(6)-nitrile-1H-benzimidazol-1-yl)-androsta-5,16-diene] |  |  | diminished AR down-regulation (ARD) activity | GI50 [1, 5]: 2.81 µM
10 | C[C@]12CCC(=O)CC1=CC[C@@H]1[C@@H]2CC[C@]2(C)C(n3cnc4ccccc43)=CC[C@@H]12 [Compound 33, 17-(1H-Benzimidazol-1-yl)-androsta-5,16-dien-3-one] | 170 to 172 |  |  | GI50 [1, 3]: 16 µM; fold loss/reduction in anti-proliferative activity [1]: ~5 fold
11 | C[C@]12CC[C@H](O)CC1=CC[C@@H]1[C@@H]2CC[C@]2(C)C(n3cnc4c(Cl)ncnc43)=CC[C@@H]12 [Compound 21, 3β-Hydroxy-17-(6-Chloro-9H-purin-9-yl)-androsta-5,16-diene] | 272 to 274 |  |  | GI50 [1, 5]: 13.5 µM; fold loss/reduction in anti-proliferative activity [1]: 4 fold
12 | Cc1cc2ncn(C3=CC[C@H]4[C@@H]5CC=C6C[C@@H](O)CC[C@]6(C)[C@H]5CC[C@]34C)c2cc1C [Compound 17, 3β-Hydroxy-17-(5,6-dimethyl-1H-benzimidazol-1-yl)-androsta-5,16-diene] | 194 to 196 |  | substantial loss | GI50 [1, 6]: 42.7 µM
13 | CON=C1C=C2CC[C@@H]3[C@H](CC[C@]4(C)C(n5cnc6ccccc65)=CC[C@@H]34)[C@@]2(C)CC1 (mixture of isomers) [Compound 38, 3-((EZ)-O-Methyloxime)-17-(1H-Benzimidazol-1-yl)-androsta-4,16-diene] |  | 3.38 |  | 
14 | Cc1ccc(S(=O)(=O)O[C@H]2CC[C@@]3(C)C(=CC[C@@H]4[C@@H]3CC[C@]3(C)C(n5cnc6ccccc65)=CC[C@@H]43)C2)cc1 [Compound 35, 3β-Tosyloxy-17-(1H-benzimidazol-1-yl)-androsta-5,16-dien] | 139 to 141 | 47.2 |  | 
15 | 3β-(3-(Oxycarbonyl)phenylacetic acid)-17-(1H-benzimidazol-1-yl)-androsta-5,16-diene [Compound 44] |  | 7.78 |  | 
16 | CC(C)CCNCC1=C(n2cnc3ccccc32)[C@@]2(C)CC[C@H]3[C@@H](CC=C4C[C@@H](O)CC[C@@]43C)[C@@H]2C1 [Compound 25, 3β-Hydroxy-17-(1H-benzimidazol-1-yl)-16-((isopentylamino)methyl)-androsta-5,16-diene] | 111 to 113 |  | significant loss of ARD | 
17 | C[C@]12CC[C@H](O)CC1=CC[C@@H]1[C@@H]2CC[C@]2(C)C(n3c(Cl)nc4ccccc43)=CC[C@@H]12 [Compound 22, 3β-Hydroxy-17-(2-chloro-1H-benzimidazol-1-yl)-androsta-5,16-diene] | 83 to 86 |  |  | GI50 [1, 6]: 10.1 µM; fold loss/reduction in anti-proliferative activity [1]: 3 fold
18 | C[C@]12CC[C@H](O)CC1=CC[C@@H]1[C@@H]2CC[C@]2(C)C(n3cnc4cc5ccccc5cc43)=CC[C@@H]12 [Compound 20, 3β-Hydroxy-17-(1H-benzo[f]benzimidazol-1-yl)-androsta-5,16-diene] | 150 to 152 |  | significant loss of ARDA | GI50 [1, 6]: 19.1 µM
19 | C[C@]12CC[C@H](OC(=O)COCC(=O)O)CC1=CC[C@@H]1[C@@H]2CC[C@]2(C)C(n3cnc4ccccc43)=CC[C@@H]12 [Compound 46, 3β-(Oxycarbonyl-(methoxy)acetic acid)-17-(1H-benzimidazol-1-yl)-androsta-5,16-diene] |  | 9.13 |  | 

Source: patent publication US9884067B2, “Androgen receptor down-regulating agents and uses thereof” (UNIVERSITY OF MARYLAND EASTERN SHORE, priority 2013, dated 2018)
